# Several values for one entry are separate records, joined by “and”; a condition that tells them apart may be missing. Equal entries are not always repeated. Where two headings read alike, the source gives them in different places.
# Assays:
# LEMS model NMJs = assay: Intracellular recordings at LEMS model mouse NMJs, 13x, DAP and combination (Example 4); settings: 50 μM 13x, […] DAP, or both
# Experimental: To test this, intracellular microelectrode recordings were performed on ex vivo nerve-muscle preparations taken from LEMS passive-transfer model mice and measured the magnitude of acetylcholine released at the neuromuscular junction. The most sensitive method of quantifying the magnitude of acetylcholine released is to determine the quantal content. Quantal content is defined as the number of neurotransmitter-containing synaptic vesicles that are released from the nerve terminal during a single action potential stimulus. This value was determined by first measuring the area under the average action potential-evoked endplate potential (EPP) and then dividing this value by the area under the average single vesicle release event (miniature endplate potential; mEPP). This value could be compared between experimental groups to provide an accurate measurement of changes in the magnitude of acetylcholine released during a single action potential. Using this approach, the quantal content among five experimental conditions was compared: control NMJs, LEMS NMJs, LEMS NMJs exposed to 50 μM 13x, LEMS NMJs exposed to 1.5 μM DAP, and LEMS NMJs exposed to 50 μM 13x+1.5 μM DAP (FIG. 10). […]; EPP amplitude=10.18±0.62 mV) as compared with control serum treated mouse NMJs (QC=107.5±3.6; EPP amplitude=34.62±1.37 mV; Tarr et al., 2013). […] In fact, this 13x-mediated enhancement was very similar to what was observed after exposure of LEMS model NMJs to 1.5 μM DAP (QC=49.0±4.4; EPP amplitude=17.94±1.381 mV). […]; EPP amplitude=34.62±1.37 mV; Tarr et al., 2013). […] In summary, while either 13x or DAP alone caused about an 80% increase in transmitter release from LEMS model NMJs, the combination of 13x plus DAP caused about a 300% increase in transmitter release.
# [1] = biological target: T1, mitogen-activated protein kinase (MAPK1(h)) (Homo sapiens, UniProt P27361); assay: Kinase inhibitory activity (EMD Millipore KinaseProfiler), MAPK1; type: biochemical; settings: 20 μM highest concentration used; read-out: MAPK EC50/IC50 affinities
# T1 construct: purchased EMD Millipore KinaseProfiler service (Millipore UK Ltd.)
# T1 sequence (P27361 whole entry): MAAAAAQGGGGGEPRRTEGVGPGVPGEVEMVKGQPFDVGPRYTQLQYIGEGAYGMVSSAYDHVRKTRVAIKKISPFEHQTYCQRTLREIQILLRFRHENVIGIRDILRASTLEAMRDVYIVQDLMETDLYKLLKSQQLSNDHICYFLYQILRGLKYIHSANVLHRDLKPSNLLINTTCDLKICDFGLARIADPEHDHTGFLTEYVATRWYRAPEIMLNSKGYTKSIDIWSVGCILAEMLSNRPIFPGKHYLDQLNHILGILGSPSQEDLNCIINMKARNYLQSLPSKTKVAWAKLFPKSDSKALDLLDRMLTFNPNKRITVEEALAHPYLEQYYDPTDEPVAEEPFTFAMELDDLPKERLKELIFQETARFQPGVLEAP
# Experimental: (§1) Kinase inhibitory activity. Kinase inhibitory activities were determined using the EMD Millipore KinaseProfiler™ service (Millipore UK Ltd.). Each compound's kinase inhibitory activity was tested at three different concentrations (0.2 μM, 2 μM, and 20 μM) against five different kinases: Cdk1 cyclinB(h), cdk2 cyclinA(h), cdk5 p35(h), mitogen-activated protein kinase (MAPK1(h)) and myosin light-chain kinase (MLCK(h)).
# Statistical Analysis. […] For the dose-response analyses on Ca^2+ current, each concentration of the four different compounds was tested in 3-6 cells. […] All EC50 and IC50 values and their respective errors were determined by performing 100 iterations of a logistic function curve fit.
# [2] = biological target: T2, L-type (Cav 1.3) channels (Rattus norvegicus, UniProt P27732); assay: L-type Ca2+ channel agonist activity, whole-cell perforated patch clamp in tsA-201 cells; type: cell-based
# T2 construct: host or cells: tsA-201
# T2 sequence (P27732 whole entry): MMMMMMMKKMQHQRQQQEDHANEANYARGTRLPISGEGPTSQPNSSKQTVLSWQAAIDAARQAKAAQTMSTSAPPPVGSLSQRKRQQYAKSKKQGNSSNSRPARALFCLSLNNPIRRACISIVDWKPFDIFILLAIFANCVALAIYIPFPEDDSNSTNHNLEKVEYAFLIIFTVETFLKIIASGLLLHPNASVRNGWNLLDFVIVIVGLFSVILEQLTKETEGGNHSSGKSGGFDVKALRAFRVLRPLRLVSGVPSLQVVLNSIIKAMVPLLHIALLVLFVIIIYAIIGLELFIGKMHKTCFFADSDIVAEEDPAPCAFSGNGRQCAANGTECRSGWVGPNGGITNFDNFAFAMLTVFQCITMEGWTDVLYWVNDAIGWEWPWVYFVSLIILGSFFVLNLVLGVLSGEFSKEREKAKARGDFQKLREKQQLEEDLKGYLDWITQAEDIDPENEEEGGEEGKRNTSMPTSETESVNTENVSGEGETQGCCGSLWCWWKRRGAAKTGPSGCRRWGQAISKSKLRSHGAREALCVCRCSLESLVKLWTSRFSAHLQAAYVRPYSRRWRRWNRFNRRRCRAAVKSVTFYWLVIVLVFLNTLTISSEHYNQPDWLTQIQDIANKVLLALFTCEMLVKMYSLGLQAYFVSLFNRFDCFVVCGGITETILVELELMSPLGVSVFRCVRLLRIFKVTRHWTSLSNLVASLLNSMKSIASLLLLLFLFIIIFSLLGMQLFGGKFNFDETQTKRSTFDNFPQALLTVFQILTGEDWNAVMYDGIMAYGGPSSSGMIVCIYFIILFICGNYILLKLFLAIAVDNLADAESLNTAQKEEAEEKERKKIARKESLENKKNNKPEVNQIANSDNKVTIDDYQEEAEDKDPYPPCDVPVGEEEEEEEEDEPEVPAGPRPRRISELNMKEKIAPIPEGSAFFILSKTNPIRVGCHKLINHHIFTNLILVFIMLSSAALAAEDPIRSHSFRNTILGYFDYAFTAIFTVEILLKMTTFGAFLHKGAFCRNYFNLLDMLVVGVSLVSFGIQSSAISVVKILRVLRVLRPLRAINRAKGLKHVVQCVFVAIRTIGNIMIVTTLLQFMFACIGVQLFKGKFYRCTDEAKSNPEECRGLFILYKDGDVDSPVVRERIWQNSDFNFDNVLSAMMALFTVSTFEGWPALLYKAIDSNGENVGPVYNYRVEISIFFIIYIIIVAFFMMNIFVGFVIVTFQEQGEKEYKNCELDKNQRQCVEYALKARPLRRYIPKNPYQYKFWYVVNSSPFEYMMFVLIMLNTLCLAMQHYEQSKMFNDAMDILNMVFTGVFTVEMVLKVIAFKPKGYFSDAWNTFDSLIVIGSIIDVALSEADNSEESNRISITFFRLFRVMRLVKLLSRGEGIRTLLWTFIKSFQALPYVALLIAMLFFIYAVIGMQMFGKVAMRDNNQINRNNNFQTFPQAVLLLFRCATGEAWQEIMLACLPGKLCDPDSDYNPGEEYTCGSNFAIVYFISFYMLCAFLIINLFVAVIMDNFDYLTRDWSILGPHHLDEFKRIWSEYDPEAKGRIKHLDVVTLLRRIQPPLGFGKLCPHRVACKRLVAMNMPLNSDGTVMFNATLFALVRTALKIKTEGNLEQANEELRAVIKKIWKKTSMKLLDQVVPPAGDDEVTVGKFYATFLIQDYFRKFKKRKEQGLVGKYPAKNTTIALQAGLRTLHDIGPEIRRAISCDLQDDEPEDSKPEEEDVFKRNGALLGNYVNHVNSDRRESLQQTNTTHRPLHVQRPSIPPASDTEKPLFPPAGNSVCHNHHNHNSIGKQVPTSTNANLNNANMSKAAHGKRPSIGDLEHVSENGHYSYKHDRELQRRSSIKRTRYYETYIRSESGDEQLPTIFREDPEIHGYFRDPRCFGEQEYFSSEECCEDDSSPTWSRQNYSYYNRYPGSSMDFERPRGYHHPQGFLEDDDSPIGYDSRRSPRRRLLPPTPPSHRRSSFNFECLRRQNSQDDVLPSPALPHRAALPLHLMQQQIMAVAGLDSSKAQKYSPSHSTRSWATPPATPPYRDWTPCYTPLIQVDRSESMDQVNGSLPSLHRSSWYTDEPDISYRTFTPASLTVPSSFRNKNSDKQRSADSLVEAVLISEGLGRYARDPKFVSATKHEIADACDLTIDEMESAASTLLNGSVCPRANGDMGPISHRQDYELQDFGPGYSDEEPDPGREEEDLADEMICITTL
# Experimental: For subsequent evaluation of effects on N-, P/Q-, or L-type channels, tsA-201 cells were transiently transfected with Cav2.2, Cav2.1, or Cav1.3, in combination with Cavβ3 and Cavα2β1 (Addgene, Cambridge Mass.) using FuGENE 6 (Life Technologies, Grand Island, N.Y.). All cells were maintained in DMEM supplemented with 10% fetal bovine serum.
# Whole-cell patch clamp recordings of calcium current. […] Briefly, the pipette solution consisted of 70 nM Cs2SO4, 60 mM CsCl, 1 mM MgCl2, 10 mM 4-(2-hydroxyethyl)-1-piperazineethanesulfonic acid (HEPES) at pH 7.4. […] Patch pipettes were fabricated from borosilicate glass and pulled to a resistance of about 1 MΩ. Before each experiment, a stock solution consisting of 3 mg amphotericin-B dissolved into 50 μL anhydrous DMSO was made. […] Capacitive currents and passive membrane responses to voltage commands were subtracted from the data. Currents were amplified by an Axopatch 200B amplifier, filtered at 5 KHz, and digitized at 10 KHz for subsequent analysis using pClamp software (Axon Instruments/Molecular Devices; Sunnyvale, Calif.). […] To measure effects on calcium channel tail currents, the tail current integral was measured before and after application of a derivative, with the integral of each trace being normalized to its peak. All experiments were carried out at room temperature (22° C.). […]
# cdk5 p35(h) = biological target: T3, cdk5 p35(h) (Homo sapiens, UniProt Q00535); assay: Kinase inhibitory activity (EMD Millipore KinaseProfiler), cdk5; type: biochemical; settings: 20 μM highest concentration used; read-out: Cdk5 EC50/IC50 affinities
# T3 construct: purchased EMD Millipore KinaseProfiler service (Millipore UK Ltd.)
# Experimental: as §1
# Statistical Analysis. Statistical analysis was performed using either GraphPad Prism 5 (GraphPad Software, Inc.) or Origin 7 (OriginLab) software. For the dose-response analyses on Ca^2+ current, each concentration of the four different compounds was tested in 3-6 cells. […] All EC50 and IC50 values and their respective errors were determined by performing 100 iterations of a logistic function curve fit. Data are presented as mean±s.e.m. unless otherwise noted.
# [3] = biological target: T4, P/Q-type channels (Cav 2.1) (Rattus norvegicus, UniProt P54282); assay: P/Q-type Ca2+ channel agonist activity, whole-cell perforated patch clamp in tsA-201 cells; type: cell-based
# T4 construct: host or cells: tsA-201
# T4 sequence (P54282 whole entry): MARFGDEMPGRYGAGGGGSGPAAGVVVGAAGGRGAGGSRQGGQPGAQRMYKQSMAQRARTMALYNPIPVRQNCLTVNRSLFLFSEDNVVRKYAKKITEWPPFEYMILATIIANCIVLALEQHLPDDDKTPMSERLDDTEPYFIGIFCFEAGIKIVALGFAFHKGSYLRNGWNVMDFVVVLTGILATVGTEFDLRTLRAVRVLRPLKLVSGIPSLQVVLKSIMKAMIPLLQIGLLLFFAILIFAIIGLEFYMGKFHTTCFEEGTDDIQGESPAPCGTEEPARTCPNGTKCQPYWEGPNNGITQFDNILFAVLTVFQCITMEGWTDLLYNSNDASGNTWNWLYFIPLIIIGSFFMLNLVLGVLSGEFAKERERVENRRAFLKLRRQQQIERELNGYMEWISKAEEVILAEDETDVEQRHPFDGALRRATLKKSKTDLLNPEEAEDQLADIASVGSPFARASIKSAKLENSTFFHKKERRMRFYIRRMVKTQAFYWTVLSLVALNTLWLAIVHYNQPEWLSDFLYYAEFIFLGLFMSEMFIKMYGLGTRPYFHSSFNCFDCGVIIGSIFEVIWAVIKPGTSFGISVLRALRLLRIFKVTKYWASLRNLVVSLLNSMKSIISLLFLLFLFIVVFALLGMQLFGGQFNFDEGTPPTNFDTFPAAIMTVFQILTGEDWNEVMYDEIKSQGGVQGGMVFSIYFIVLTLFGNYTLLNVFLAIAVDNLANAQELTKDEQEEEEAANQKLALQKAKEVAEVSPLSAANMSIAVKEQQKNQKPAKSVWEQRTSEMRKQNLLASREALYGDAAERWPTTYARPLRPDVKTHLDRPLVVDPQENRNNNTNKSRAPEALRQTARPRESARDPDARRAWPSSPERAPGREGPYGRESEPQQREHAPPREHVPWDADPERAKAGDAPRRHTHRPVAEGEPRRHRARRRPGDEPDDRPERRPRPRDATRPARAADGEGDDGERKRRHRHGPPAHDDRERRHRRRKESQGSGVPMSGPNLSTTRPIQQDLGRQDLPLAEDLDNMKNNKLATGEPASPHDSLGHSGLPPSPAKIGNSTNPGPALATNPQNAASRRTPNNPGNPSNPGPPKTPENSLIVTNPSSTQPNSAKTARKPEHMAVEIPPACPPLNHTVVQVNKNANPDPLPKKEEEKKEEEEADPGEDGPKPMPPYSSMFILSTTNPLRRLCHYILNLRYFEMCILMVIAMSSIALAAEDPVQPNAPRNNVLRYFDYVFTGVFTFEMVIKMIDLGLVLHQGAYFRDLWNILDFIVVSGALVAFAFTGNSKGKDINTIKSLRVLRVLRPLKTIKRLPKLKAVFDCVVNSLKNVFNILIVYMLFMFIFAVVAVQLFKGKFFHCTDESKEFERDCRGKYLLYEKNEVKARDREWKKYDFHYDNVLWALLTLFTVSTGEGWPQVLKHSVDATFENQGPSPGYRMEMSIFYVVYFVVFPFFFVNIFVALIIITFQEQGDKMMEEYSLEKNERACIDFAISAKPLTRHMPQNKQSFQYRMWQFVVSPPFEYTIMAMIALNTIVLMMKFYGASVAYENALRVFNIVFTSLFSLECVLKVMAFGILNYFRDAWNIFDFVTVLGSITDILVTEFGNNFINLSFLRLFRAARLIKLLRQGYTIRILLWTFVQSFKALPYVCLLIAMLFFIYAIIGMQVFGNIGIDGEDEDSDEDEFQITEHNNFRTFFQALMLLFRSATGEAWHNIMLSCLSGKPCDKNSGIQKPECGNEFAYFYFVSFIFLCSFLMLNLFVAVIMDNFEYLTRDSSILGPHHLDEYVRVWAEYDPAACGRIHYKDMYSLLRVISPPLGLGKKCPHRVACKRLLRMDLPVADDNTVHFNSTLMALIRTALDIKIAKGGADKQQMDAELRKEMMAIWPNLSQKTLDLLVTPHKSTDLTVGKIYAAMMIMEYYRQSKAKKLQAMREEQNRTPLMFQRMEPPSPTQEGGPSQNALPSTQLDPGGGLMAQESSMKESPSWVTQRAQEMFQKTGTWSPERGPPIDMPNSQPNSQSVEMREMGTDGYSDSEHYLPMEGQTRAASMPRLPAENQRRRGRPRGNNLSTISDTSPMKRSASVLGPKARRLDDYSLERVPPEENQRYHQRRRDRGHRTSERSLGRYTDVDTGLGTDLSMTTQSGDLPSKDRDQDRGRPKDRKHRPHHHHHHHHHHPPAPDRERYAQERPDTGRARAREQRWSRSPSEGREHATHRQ
# Experimental: tsA201 cells expressing calcium channels. […] For subsequent evaluation of effects on N-, P/Q-, or L-type channels, tsA-201 cells were transiently transfected with Cav2.2, Cav2.1, or Cav1.3, in combination with Cavβ3 and […] (Addgene, Cambridge Mass.) using FuGENE 6 (Life Technologies, Grand Island, N.Y.). All cells were maintained in DMEM supplemented with 10% fetal bovine serum. For the stable cell line expressing N-type channels, 25 μg/mL zeocin, 5 μg/mL blasticidin, and 25 μg/mL hygromycin were added as selection agents.
# Whole-cell patch clamp recordings of calcium current. […] Briefly, the pipette solution consisted of […] Cs2SO4, 60 mM CsCl, 1 mM MgCl2, 10 mM 4-(2-hydroxyethyl)-1-piperazineethanesulfonic acid (HEPES) at pH 7.4. […] Patch pipettes were fabricated from borosilicate glass and pulled to a resistance of about 1 MΩ. Before each experiment, a stock solution consisting of 3 mg amphotericin-B dissolved into 50 μL anhydrous DMSO was made. […] Capacitive currents and passive membrane responses to voltage commands were subtracted from the data. Currents were amplified by an Axopatch 200B amplifier, filtered at 5 KHz, and digitized at 10 KHz for subsequent analysis using pClamp software (Axon Instruments/Molecular Devices; Sunnyvale, Calif.). […] To measure effects on calcium channel tail currents, the tail current integral was measured before and after application of a derivative, with the integral of each trace being normalized to its peak. All experiments were carried out at room temperature (22° C.). […] All other salts and chemicals were obtained from Sigma-Aldrich chemical company (St. Louis, Mo.).
# Capacitive currents and passive membrane responses to voltage commands were subtracted from the data. […] All experiments were carried out at room temperature (22° C.).
smiles,measurement,setting,value
"CCCn1cnc2c(NCc3ccc(C)s3)nc(N[C@H](CC)CO)nc21 [Compound 13x, (2R)-2-[(6-{[(5-Methylthiophen-2-yl)methyl]amino}-9-propyl-9H-purin-2-yl)amino]butan-1-ol]",10th EPP of 50 Hz train as % of the first EPP (short-term plasticity),LEMS model NMJs,~123%
same,increase in transmitter release from LEMS model NMJs,LEMS model NMJs,~80%
same,EPP amplitude,LEMS model NMJs; LEMS model NMJs,13.75±1.244 mV
same,"quantal content (QC, area of EPP divided by area of mEPP)","LEMS model NMJs; LEMS model NMJs, mean±s.e.m.",48.4±2.7
same,IC50,[1],> 20 µM
same,EC50,"[2]; Cav 1.3, no measureable agonist effect up to 100 μM, read-out: L-type EC50/IC50 affinities",> 100 µM
same,EC50,"[2]; b265, read-out: agonist effects on L-type calcium channels EC50",> 100 µM
same,IC50,cdk5 p35(h),3.03 ± 0.32 µM
same,increase of the tail current integral compared to control,[3]; P/Q-type channels,~33 fold
same,EC50,"[3]; b265, read-out: agonist effects on P/Q-type calcium channels EC50",9.9 µM
same,EC50,"[3]; calcium channel agonist, Cav 2.1, read-out: P/Q-type EC50/IC50 affinities",8.8 µM and 8.81 µM
same,EC50,[3]; read-out: 95% confidence interval for a fit (EC50) to P/Q channels data,6.7 to 14.5 µM
